# Data published in patent publication US8461160B2, “Dihydropyrimidinones” (Hoffmann-La Roche, Inc., priority 2009, dated 2013).
# Biological target: T1, BACE2 (Homo sapiens, UniProt Q9Y5Z0)
# T1 construct: BACE2 enzyme ectodomain (derived from plasmid “pET17b-T7-hu proBACE2”) was prepared as described in Ostermann et al; T7 tag (N); made in house
# T1 sequence (Q9Y5Z0 21-473 limits assumed): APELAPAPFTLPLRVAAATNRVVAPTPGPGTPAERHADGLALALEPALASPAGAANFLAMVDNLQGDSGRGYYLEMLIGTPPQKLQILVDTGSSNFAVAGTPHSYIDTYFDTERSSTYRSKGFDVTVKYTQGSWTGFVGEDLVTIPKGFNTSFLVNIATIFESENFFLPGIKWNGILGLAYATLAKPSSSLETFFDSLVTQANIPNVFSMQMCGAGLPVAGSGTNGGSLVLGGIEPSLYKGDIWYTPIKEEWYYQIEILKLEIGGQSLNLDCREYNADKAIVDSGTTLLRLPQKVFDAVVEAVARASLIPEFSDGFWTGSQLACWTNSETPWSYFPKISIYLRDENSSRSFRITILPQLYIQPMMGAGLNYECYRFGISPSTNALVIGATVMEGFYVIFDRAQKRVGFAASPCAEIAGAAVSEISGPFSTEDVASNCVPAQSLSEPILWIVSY
# Assay: Fluorescent-peptide cleavage assay for BACE2 inhibition
# Type: biochemical
# Settings: BACE2 enzyme ectodomain, fluorescent peptide WS EVNLD AEFRC-MR121, assay buffer pH 4.5, room temperature
# Outline: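 Pro-enzyme BACE2 was activated at 80 nM for 1 h at room temperature in 100 mM Na-acetate, 20 mM EDTA, 0.05% BSA, pH 4.5, then preincubated 10 min with compound. IC50 from sigmoidal dose-response fit.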
row,Structure (SMILES),IC50
1,"CN1C(=O)C(C)(C)[C@@](C)(c2cc(NC(=O)c3nccn3C)ccc2F)N=C1N [Example 111, 1-Methyl-1H-imidazole-2-carboxylic acid [3-((S)-2-amino-1,4,5,5-tetramethyl-6-oxo-1,4,5,6-tetrahydro-pyrimidin-4-yl)-4-fluoro-phenyl]amide]",190 nM
2,"Cc1cc(C(=O)Nc2cccc([C@]3(C)CC(=O)N(C)C(N)=N3)c2)n(C2CC2)n1 [Example 79, 2-Cyclopropyl-5-methyl-2H-pyrazole-3-carboxylic acid [3-((S)-2-amino-1,4-dimethyl-6-oxo-1,4,5,6-tetrahydro-pyrimidin-4-yl)-phenyl]-amide]",190 nM
3,"CN1C(=O)C[C@@](C)(c2cccc(NC(=O)c3ccc(-n4ccc(C(F)(F)F)n4)cn3)c2)N=C1N [Example 76, 5-(3-Trifluoromethyl-pyrazol-1-yl)-pyridine-2-carboxylic acid [3-((S)-2-amino-1,4-dimethyl-6-oxo-1,4,5,6-tetrahydro-pyrimidin-4-yl)-phenyl]-amide]",300 nM
4,"CN1C(=O)C[C@@](C)(c2cccc(NC(=O)c3nc(Cl)ccc3Cl)c2)N=C1N [Example 54, 3,6-Dichloro-pyridine-2-carboxylic acid [3-((S)-2-amino-1,4-dimethyl-6-oxo-1,4,5,6-tetrahydro-pyrimidin-4-yl)-phenyl]-amide]",976 nM
5,"CN1C(=O)C[C@@](C)(c2cccc(NC(=O)c3ccc4sccc4n3)c2)N=C1N [Example 59, Thieno[3,2-b]pyridine-5-carboxylic acid [3-((S)-2-amino-1,4-dimethyl-6-oxo-1,4,5,6-tetrahydro-pyrimidin-4-yl)-phenyl]-amide]",1700 nM
6,"CN1C(=O)C[C@@](C)(c2cccc(NC(=O)c3cc4cccnc4[nH]3)c2)N=C1N [Example 78, 1H-Pyrrolo[2,3-b]pyridine-2-carboxylic acid [3-((S)-2-amino-1,4-dimethyl-6-oxo-1,4,5,6-tetrahydro-pyrimidin-4-yl)-phenyl]-amide]",800 nM
7,"CCC[C@@]1(c2cccc(NC(=O)c3ccn(C)n3)c2)CC(=O)N(C)C(N)=N1 [Example 89, 1-Methyl-1H-pyrazole-3-carboxylic acid [3-((S)-2-amino-1-methyl-6-oxo-4-propyl-1,4,5,6-tetrahydro-pyrimidin-4-yl)-phenyl]-amide]",4750 nM
8,"Cc1cc(C(=O)Nc2cccc([C@]3(C)CC(=O)N(C)C(N)=N3)c2)nn1C [Example 7, 1,5-Dimethyl-1H-pyrazole-3-carboxylic acid [3-((S)-2-amino-1,4-dimethyl-6-oxo-1,4,5,6-tetrahydro-pyrimidin-4-yl)-phenyl]amide]",1010 nM
9,"CN1C(=O)C[C@@](C)(c2cccc(NC(=O)c3ccc(Cl)nc3)c2)N=C1N [Example 19, N-[3-((S)-2-Amino-1,4-dimethyl-6-oxo-1,4,5,6-tetrahydro-pyrimidin-4-yl)-phenyl]-6-chloro-nicotinamide]",549 nM
10,"Cc1cc(C(=O)Nc2cccc([C@]3(C)CC(=O)N(C)C(N)=N3)c2)no1 [Example 82, 5-Methyl-isoxazole-3-carboxylic acid [3-((S)-2-amino-1,4-dimethyl-6-oxo-1,4,5,6-tetrahydro-pyrimidin-4-yl)-phenyl]-amide]",590 nM
11,"Cc1cc(C(=O)Nc2cccc([C@]3(C)CC(=O)N(C)C(N)=N3)c2)on1 [Example 6, 3-Methyl-isoxazole-5-carboxylic acid [3-((S)-2-amino-1,4-dimethyl-6-oxo-1,4,5,6-tetrahydro-pyrimidin-4-yl)-phenyl]amide]",307 nM
12,"CN1C(=O)C(C)(C)[C@@](C)(c2cc(NC(=O)c3nc(Cl)ccc3C(F)(F)F)ccc2F)N=C1N [Example 119, 6-Chloro-3-trifluoromethyl-pyridine-2-carboxylic acid [3-((S)-2-amino-1,4,5,5-tetramethyl-6-oxo-1,4,5,6-tetrahydro-pyrimidin-4-yl)-4-fluoro-phenyl]amide]",560 nM
13,"CN1C(=O)C[C@@](C)(c2cccc(NC(=O)c3nccc4ccccc34)c2)N=C1N [Example 56, Isoquinoline-1-carboxylic acid [3-((S)-2-amino-1,4-dimethyl-6-oxo-1,4,5,6-tetrahydro-pyrimidin-4-yl)-phenyl]-amide]",2980 nM

# Compounds with a lower IC50, results first:
row,IC50,Structure (SMILES)
1,16 nM,"CN1C(=O)C[C@@](C)(c2cccc(NC(=O)c3ncc(C(F)(F)F)cc3Cl)c2)N=C1N [Example 70, 3-Chloro-5-trifluoromethyl-pyridine-2-carboxylic acid [3-((S)-2-amino-1,4-dimethyl-6-oxo-1,4,5,6-tetrahydro-pyrimidin-4-yl)-phenyl]-amide]"
2,28 nM,"CN1C(=O)C(C)(C)[C@@](C)(c2cc(NC(=O)c3ncccc3F)ccc2F)N=C1N [Example 108, 3-Fluoro-pyridine-2-carboxylic acid [3-((S)-2-amino-1,4,5,5-tetramethyl-6-oxo-1,4,5,6-tetrahydro-pyrimidin-4-yl)-4-fluoro-phenyl]amide]"
3,8 nM,"CN1C(=O)C(C)(C)[C@@](C)(c2cc(NC(=O)c3ccc(Cl)cn3)ccc2F)N=C1N [Example 53, 5-Chloro-pyridine-2-carboxylic acid [3-((S)-2-amino-1,4,5,5-tetramethyl-6-oxo-1,4,5,6-tetrahydro-pyrimidin-4-yl)-4-fluoro-phenyl]amide]"
4,30 nM,"CN1C(=O)C[C@@](C)(c2cccc(NC(=O)c3cccc(Cl)n3)c2)N=C1N [Example 31, 6-Chloro-pyridine-2-carboxylic acid [3-((S)-2-amino-1,4-dimethyl-6-oxo-1,4,5,6-tetrahydro-pyrimidin-4-yl)-phenyl]-amide]"
5,14 nM,"CN1C(=O)C[C@@](C)(c2cc(NC(=O)c3ncc(Cl)cn3)ccc2F)N=C1N [Example 46, 5-Chloro-pyrimidine-2-carboxylic acid [3-((S)-2-amino-1,4-dimethyl-6-oxo-1,4,5,6-tetrahydro-pyrimidin-4-yl)-4-fluoro-phenyl]amide]"
6,7 nM,"CN1C(=O)C[C@@](C)(c2cccc(NC(=O)c3ccc(Cl)cn3)c2)N=C1N [Example 10, 5-Chloro-pyridine-2-carboxylic acid [3-((S)-2-amino-1,4-dimethyl-6-oxo-1,4,5,6-tetrahydro-pyrimidin-4-yl)-phenyl]amide]"
7,150 nM,"COc1cccnc1C(=O)Nc1ccc(F)c([C@@]2(C)N=C(N)N(C)C(=O)C2(C)C)c1 [Example 104, 3-Methoxy-pyridine-2-carboxylic acid [3-((S)-2-amino-1,4,5,5-tetramethyl-6-oxo-1,4,5,6-tetrahydro-pyrimidin-4-yl)-4-fluoro-phenyl]amide]"
8,10 nM,"C[C@@]1(c2cccc(NC(=O)c3ccc(Cl)cn3)c2)CC(=O)N(Cc2ccccc2)C(N)=N1 [Example 50, 5-Chloro-pyridine-2-carboxylic acid [3-((S)-2-amino-1-benzyl-4-methyl-6-oxo-1,4,5,6-tetrahydro-pyrimidin-4-yl)-phenyl]amide]"
9,21 nM,"COc1ccc(C(=O)Nc2ccc(F)c([C@@]3(C)N=C(N)N(C)C(=O)C3(C)C)c2)nc1 [Example 113, 5-Methoxy-pyridine-2-carboxylic acid [3-((S)-2-amino-1,4,5,5-tetramethyl-6-oxo-1,4,5,6-tetrahydro-pyrimidin-4-yl)-4-fluoro-phenyl]amide]"
10,180 nM,"CN1C(=O)C(C)(C)[C@@](C)(c2cccc(NC(=O)c3ncccc3-c3ccccc3Cl)c2)N=C1N [Example 97, 3-(2-Chloro-phenyl)-pyridine-2-carboxylic acid [3-((R)-2-amino-1,4,5,5-tetramethyl-6-oxo-1,4,5,6-tetrahydro-pyrimidin-4-yl)-phenyl]amide]"
11,43 nM,"CN1C(=O)C(C)(C)[C@@](C)(c2cc(NC(=O)c3ccccn3)ccc2F)N=C1N [Example 100, Pyridine-2-carboxylic acid [3-((S)-2-amino-1,4,5,5-tetramethyl-6-oxo-1,4,5,6-tetrahydro-pyrimidin-4-yl)-4-fluoro-phenyl]amide]"
12,21 nM,"Cc1nc(C(=O)Nc2ccc(F)c([C@@]3(C)N=C(N)N(C)C(=O)C3(C)C)c2)co1 [Example 101, 2-Methyl-oxazole-4-carboxylic acid [3-((S)-2-amino-1,4,5,5-tetramethyl-6-oxo-1,4,5,6-tetrahydro-pyrimidin-4-yl)-4-fluoro-phenyl]amide]"
13,25 nM,"COc1ccc(C(=O)Nc2cccc([C@]3(C)CC(=O)N(C)C(N)=N3)c2)nc1 [Example 14, 5-Methoxy-pyridine-2-carboxylic acid [3-((S)-2-amino-1,4-dimethyl-6-oxo-1,4,5,6-tetrahydro-pyrimidin-4-yl)-phenyl]-amide]"
14,61 nM,"CN1C(=O)C[C@@](C)(c2cccc(NC(=O)c3ccn(C)n3)c2)N=C1N [Example 69, 1-Methyl-1H-pyrazole-3-carboxylic acid [3-((S)-2-amino-1,4-dimethyl-6-oxo-1,4,5,6-tetrahydro-pyrimidin-4-yl)-phenyl]-amide]"
15,43 nM,"CN1C(=O)C(C)(C)[C@@](C)(c2cc(NC(=O)c3cn4cc(Cl)ccc4n3)ccc2F)N=C1N [Example 120, 6-Chloro-imidazo[1,2-a]pyridine-2-carboxylic acid [3-((S)-2-amino-1,4,5,5-tetramethyl-6-oxo-1,4,5,6-tetrahydro-pyrimidin-4-yl)-4-fluoro-phenyl]amide]"
